For 14 compounds, IC50 and inhibition in vivo results are on record in patent US6048854A, “2,3-diaminopropionic acid derivative” (Sumitomo Pharmaceuticals Company, Limited, priority 1993, dated 2000).

Where two headings read alike, the source gives them in different places.

A word on the IC50: it is the point on the concentration scale where inhibition reaches its midpoint.

Experiment [1] relates to platelet aggregation. In words: Platelet aggregation inhibitory activity (ADP-induced, human platelet rich plasma). Type of experiment: cell-based. The note with it: Homo sapiens. Here is the method: The blood was collected from the elbow vein of a normal volunteer with mixing thereof with 1/10 volume of 3.8% sodium citrate, and the blood was centrifuged at 1000 rpm (150 g) for 10 minutes to give the supernatant as platelet rich plasma (PRP). To PRP (200 μl) was added a test compound solution (2 μl), and the mixture was incubated with stirring at 1000 rpm at 37° C. for two minutes, and thereto was added a platelet aggregator, adenosine diphosphate (ADP, 22 μl) at a final concentration of 3 μg/ml. The platelet aggregation activity was determined by nephelometric analysis using a Hematracer (manufactured by Niko Bioscience, Ltd.). The test results of platelet aggregation inhibitory activity are expressed by IC50, which is a concentration of the test compound being required to inhibit the platelet aggregation reaction by 50%.
The compounds of Examples 18 to 70 were tested in the same manner as in Example 17.
The compounds of Examples 72 to 116 were tested in the same manner as in Example 17.

The target in the next experiment is T1, human fibrinogen (Homo sapiens, UniProt P05106+P08514).
T1 construct: centrifuged at 11000 rpm for two minutes to give human platelet; from tissue
In words: Binding assay of platelet to adhesive protein: fibrinogen (receptor binding inhibition). Particulars: Table 4; fixed activated human platelets, 37° C., 60 minutes. The protocol: (§1) The blood was taken out from the elbow vein of a normal volunteer, and mixed with 1/10 volume of 3.8% sodium citrate. The blood was centrifuged at 1,000 rpm (150 g) for 10 minutes, and the supernatant is collected as a platelet rich plasma (PRP). The precipitates are centrifuged at 11,000 rpm (6000 g) for two minutes, and the supernatant is collected as a platelet poor plasma (PPP). To PRP is added prostaglandin I2 (PGl2) at a final concentration of 50 ng/ml, and the mixture was centrifuged at 11000 rpm for two minutes to give human platelet. The platelet was activated by washing with 3.8 mM HEPES-buffer (pH 7.4, Tyrode-HEPES buffer) containing 0.14 M sodium chloride, 2.7 mM potassium chloride, 3.7 mM sodium dihydrogen phosphate, 0.98 mM magnesium chloride, 1 mg/ml glucose, 50 ng/ml PGl2 and 0.35% bovine serum albumin (BSA), adding thereto 5 μM epinephrine, and 30 μM ADP (adenosine diphosphate), followed by being allowed to stand at room temperature for five minutes. To the activated platelet was added 0.05% p-formaldehyde, and the mixture was allowed to stand at room temperature for 30 minutes to give the fixed platelet, which was suspended in Tyrode-HEPES buffer to give a platelet suspension of a concentration of 2×10^8 ml^-1.
(§2) Human fibrinogen from which fibronectin was previously removed by passing through gelatin-cepharose, human fibronectin or human vitronectin was diluted with 0.1 M aqueous sodium hydrogen carbonate solution to a concentration of 5 μg/ml, and the protein solution is put into a 96-well microplate at a volume of 200 μl/well. The microplate was allowed to stand at 4° C. overnight. The plate was washed with phosphate buffered saline (PBS), and subjected to blocking with 3% BSA at 37° C. for one hour. To the plate were added a platelet suspension (final concentration, 10^8 ml^-1) and a test compound of various concentrations (total volume, 200 μl/well), and the plate was incubated at 37° C. for 60 minutes. The plate was treated with 1000-fold diluted enzyme (HRP)-labelled anti-mouse IgG polyclonal antibody at 37° C. for 60 minutes, and thereto was added HRP chromogenic substrate (0.1 M phosphate buffer containing 0.4 mg/ml O-phenylenediamine,0.01% hydrogen peroxide, 0.1 M citric acid, pH 5), and reacted at room temperature for 15 minutes. The reaction was terminated by adding thereto 4.5 M sulfuric acid at a volume of 25 μl/well, and the absorbance at 490 nm was measured.

For the next experiment, the system named is human fibronectin. In words: Binding assay of platelet to adhesive protein: fibronectin (receptor binding inhibition). Particulars: Table 4; fixed activated human platelets, 37° C., 60 minutes. Here is the method: as §1, §2
Another experiment deals with human vitronectin. The experiment in a line: Binding assay of platelet to adhesive protein: vitronectin (receptor binding inhibition). The note with it: Table 4; fixed activated human platelets, 37° C., 60 minutes; read-out: receptor binding inhibition (IC50), Bitronectin. The protocol: as §1, §2
In experiment [2] the test system is platelet aggregation. The experiment in a line: Platelet aggregation inhibitory activity (ex vivo) after oral administration. Type of experiment: in vivo. Particulars: Cavia porcellus, guinea pig, oral 0.1 mg/kg, ADP 10 μg/ml. The protocol: A canula for collecting blood was inserted into the left common carotid artery of a guinea pig which was anesthetized with pentobarbital (30 mg/kg, i.p.). The blood (1 ml) was taken with a syringe containing 1/10 volume of 3.8% sodium citrate (Kettin-citrate, manufactured by Kokusai Shiyaku Ltd.), and the platelet aggregation ability thereof was measured (as a value before administration). Then, a test compound was orally administered to the guinea pig at a dose of 0.1 mg/kg in a volume of 5 ml/kg, and the blood was collected periodically likewise at 0.5, 1, 2, 4 and 6 hours after the administration of the test compound, and the platelet aggregation ability thereof was measured.
The determination of the platelet aggregation ability was carried out by turbidimetry using a Hematracer (Niko Bioscience) as follows. That is, the blood was centrifuged at 4500 rpm at room temperature for 10 seconds, and the supernatant was considered as platelet rich plasma (PRP), and the precipitate was centrifuged at 11000 rpm for two minutes and its supernatant was considered as platelet poor plasma (PPP), and the photo-transmittance of the PRP and the PPP was adjusted to 0%, and 100%, respectively. A cubet containing PRP (200 μl) was inserted to a measurement well, and […] at 1000 rpm at 37° C. for two minutes, and thereto was added a platelet aggregator; ADP (adenosine diphosphate, Sigma Ltd., 20 μl, final concentration; 10 μg/ml), and the maximum aggregation rate was measured. From the maximum aggregation rate before the administration of the test compound (MAR control) and the maximum aggregation rate after the administration of the test compound (MAR sample), the platelet aggregation inhibitory rate of each test compound was estimated according to the following equation.
Inhibitory rate (%)=(1-(MAR sample/MAR control))×100
The periodical change in the platelet aggregation inhibitory rate of each test compound at a dose of 0.1 mg/kg of oral administration is shown in Table 5.

The mark [3] stands for this setting: Table 2, same manner as Example 17.
Where [4] appears, read: 0.5 hr, read-out: platelet aggregation inhibitory rate (%), 0.5 hr.
Setting [5] is: 1 hr, read-out: platelet aggregation inhibitory rate (%), 1 hr.
The mark [6] stands for this setting: 2 hrs, read-out: platelet aggregation inhibitory rate (%), 2 hrs.
Setting [7] is: 4 hrs, read-out: platelet aggregation inhibitory rate (%), 4 hrs.
[8] abbreviates: 6 hrs, read-out: platelet aggregation inhibitory rate (%), 6 hrs.
Where [9] appears, read: Table 3, same manner as Example 17.

T1 sequence (P08514 32-887 limits assumed): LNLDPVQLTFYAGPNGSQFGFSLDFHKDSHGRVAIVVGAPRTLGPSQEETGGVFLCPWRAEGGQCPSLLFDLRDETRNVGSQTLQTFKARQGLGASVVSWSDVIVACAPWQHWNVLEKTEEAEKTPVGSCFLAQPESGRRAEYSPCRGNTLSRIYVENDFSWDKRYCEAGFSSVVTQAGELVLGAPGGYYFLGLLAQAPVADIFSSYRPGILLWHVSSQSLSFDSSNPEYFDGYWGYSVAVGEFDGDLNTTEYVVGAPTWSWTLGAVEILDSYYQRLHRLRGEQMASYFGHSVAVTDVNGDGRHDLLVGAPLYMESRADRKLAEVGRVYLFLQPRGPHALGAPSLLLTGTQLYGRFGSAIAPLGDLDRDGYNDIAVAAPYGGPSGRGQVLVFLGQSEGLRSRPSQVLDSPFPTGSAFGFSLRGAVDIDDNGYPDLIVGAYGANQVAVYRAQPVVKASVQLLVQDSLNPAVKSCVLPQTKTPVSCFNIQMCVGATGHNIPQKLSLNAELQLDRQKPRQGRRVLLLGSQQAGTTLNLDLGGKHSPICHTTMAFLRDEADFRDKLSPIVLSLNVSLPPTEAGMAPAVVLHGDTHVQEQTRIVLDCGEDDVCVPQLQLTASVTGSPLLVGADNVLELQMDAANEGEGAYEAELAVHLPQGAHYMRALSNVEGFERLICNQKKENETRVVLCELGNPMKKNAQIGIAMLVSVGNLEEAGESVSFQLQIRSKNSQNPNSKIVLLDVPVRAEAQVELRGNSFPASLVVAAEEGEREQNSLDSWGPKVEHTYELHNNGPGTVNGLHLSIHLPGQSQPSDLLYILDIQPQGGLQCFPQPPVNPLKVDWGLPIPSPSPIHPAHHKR
T1 sequence (P08514 891-1039 limits assumed): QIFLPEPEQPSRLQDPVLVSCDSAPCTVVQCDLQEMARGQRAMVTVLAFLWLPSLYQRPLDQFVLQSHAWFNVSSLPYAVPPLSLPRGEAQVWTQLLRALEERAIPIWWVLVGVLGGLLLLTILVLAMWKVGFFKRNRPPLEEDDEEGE
T1 sequence (P05106 27-788): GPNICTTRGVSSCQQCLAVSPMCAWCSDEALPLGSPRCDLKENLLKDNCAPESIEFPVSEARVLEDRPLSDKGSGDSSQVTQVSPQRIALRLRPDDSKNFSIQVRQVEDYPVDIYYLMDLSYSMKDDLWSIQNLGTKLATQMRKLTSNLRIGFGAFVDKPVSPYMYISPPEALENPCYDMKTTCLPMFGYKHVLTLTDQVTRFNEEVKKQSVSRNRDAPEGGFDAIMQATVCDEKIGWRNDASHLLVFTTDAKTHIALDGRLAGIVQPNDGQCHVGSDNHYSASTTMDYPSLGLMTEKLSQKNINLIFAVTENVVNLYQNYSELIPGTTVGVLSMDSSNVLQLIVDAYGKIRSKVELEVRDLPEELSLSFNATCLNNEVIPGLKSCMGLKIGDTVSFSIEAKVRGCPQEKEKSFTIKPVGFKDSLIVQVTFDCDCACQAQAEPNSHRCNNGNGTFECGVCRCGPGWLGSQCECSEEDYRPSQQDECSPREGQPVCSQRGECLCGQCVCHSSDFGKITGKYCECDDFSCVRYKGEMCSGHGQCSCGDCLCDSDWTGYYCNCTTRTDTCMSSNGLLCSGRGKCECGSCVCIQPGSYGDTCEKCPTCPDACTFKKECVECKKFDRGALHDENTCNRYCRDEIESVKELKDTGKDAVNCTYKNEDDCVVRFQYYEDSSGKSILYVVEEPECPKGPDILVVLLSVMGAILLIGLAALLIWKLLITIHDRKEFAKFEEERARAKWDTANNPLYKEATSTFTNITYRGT

Take `COc1ccc(S(=O)(=O)N[C@@H](CNC(=O)CCCOc2ccc(C(=N)N)cc2)C(=O)O)cc1` [Example 57, (2S)-3-(4-(4-amidinophenoxy)butanoylamino)-2-(4-methoxy)benzenesulfonylaminopropanoic Acid]: the half-maximal inhibitory concentration (IC50) in the experiment on platelet aggregation [1] (setting [3]) came out at 18 nM; on human fibrinogen, 7.1 nM; with human fibronectin, 1200 nM; with human vitronectin, 7500 nM.
For the compound `N=C(N)c1ccc(OCCCC(=O)NC[C@H](NS(=O)(=O)c2ccccc2)C(=O)O)cc1` [Example 58, (2S)-3-(4-(4-amidinophenoxy)butanoylamino)-2-benzenesulfonylaminopropanoicAcid], the IC50 was determined as 96 nM in the experiment with platelet aggregation [1] (setting [3]), 24 nM on human fibrinogen, 610 nM in the experiment with human fibronectin and 8000 nM in the experiment with human vitronectin.
With `N=C(N)c1ccc(OCCCC(=O)NC[C@H](NS(=O)(=O)c2ccccc2[N+](=O)[O-])C(=O)O)cc1` [Example 59], the half-inhibitory concentration (IC50) in the experiment with platelet aggregation [1] (setting [3]) worked out at 34 nM; at human fibrinogen it was 12 nM; with human fibronectin it was 610 nM; in the experiment on human vitronectin, 3300 nM.
On to `N=C(N)c1ccc(CCCCC(=O)NC[C@H](NS(=O)(=O)c2ccccc2)C(=O)O)cc1` [Example 67], for which, in the experiment with platelet aggregation [1] (setting [3]), 32 nM corresponded to half-maximal inhibition (IC50). Further, the inhibition in vivo at 0.1 mg/kg is 88% in the experiment with platelet aggregation [2] (setting [4]); 71% with platelet aggregation [2] (setting [5]); 69% in the experiment with platelet aggregation [2] (setting [6]); 31% with platelet aggregation [2] (setting [7]); 10% with platelet aggregation [2] (setting [8]).
For `N=C(N)c1ccc(C(=O)N2CCCC(C(=O)NC[C@H](NS(=O)(=O)c3ccccc3)C(=O)O)C2)cc1` (stereo partly drawn) [Example 95, (2S)-3-((1-(4-amidinobenzoyl)-3-piperidyl)carbonylamino)-2-benzenesulfonylaminopropanoic Acid], the results for the IC50 on human fibrinogen, in the experiment on human fibronectin and in the experiment on human vitronectin were 8.4 nM, 33 nM and 630 nM, respectively. Further, the inhibition in vivo at 0.1 mg/kg in the experiment on platelet aggregation [2] (setting [4]) came to 49%; in the experiment with platelet aggregation [2] (setting [5]), 49%; in the experiment with platelet aggregation [2] (setting [6]), 31%; in the experiment on platelet aggregation [2] (setting [7]), 12%; with platelet aggregation [2] (setting [8]), 18%.
In the experiment with platelet aggregation [1] (setting [9]), `CNC(=N)c1ccc(C(=O)NCCC(=O)NC[C@H](NS(=O)(=O)c2ccccc2)C(=O)O)cc1` [Example 98, (2S)-2-benzenesulfonylamino-3-(3-(4-(N-methylamidino)benzoylamino)propanoylamino)propanoic Acid] returned an IC50 of 57 nM. Moreover, the inhibition in vivo at 0.1 mg/kg in the experiment on platelet aggregation [2] (setting [4]) amounted to 94%; with platelet aggregation [2] (setting [5]), 100%; with platelet aggregation [2] (setting [6]) it was 100%; in the experiment with platelet aggregation [2] (setting [7]), 100%; in the experiment on platelet aggregation [2] (setting [8]) it was 100%.
`CCNC(=N)c1ccc(C(=O)NCCC(=O)NC[C@H](NS(=O)(=O)c2ccccc2)C(=O)O)cc1` [Example 99, (2S)-2-benzenesulfonylamino-3-(3-(4-(N-ethylamidino)benzoylamino)propanoylamino)propanoic Acid] displayed a 50% inhibitory concentration (IC50) with platelet aggregation [1] (setting [9]) of 17 nM. For the same compound, the inhibition in vivo at 0.1 mg/kg with platelet aggregation [2] (setting [4]), in the experiment on platelet aggregation [2] (setting [5]), in the experiment on platelet aggregation [2] (setting [6]), with platelet aggregation [2] (setting [7]) and in the experiment on platelet aggregation [2] (setting [8]) was 100% each time.
Take `CN(C)C(=N)c1ccc(C(=O)NCCC(=O)NC[C@H](NS(=O)(=O)c2ccccc2)C(=O)O)cc1` [Example 100, (2S)-2-benzenesulfonylamino-3-(3-(4-(N,N-dimethylamidino)benzoylamino)propanoylamino)propanoic Acid]: the half-maximal inhibitory concentration (IC50) in the experiment with platelet aggregation [1] (setting [9]) is 28 nM. The inhibition in vivo at 0.1 mg/kg with platelet aggregation [2] (setting [4]), with platelet aggregation [2] (setting [5]), in the experiment on platelet aggregation [2] (setting [6]), with platelet aggregation [2] (setting [7]) and in the experiment with platelet aggregation [2] (setting [8]) was 100% each time.
In turn, `CNC(=N)c1ccc(OCCCC(=O)NC[C@H](NS(=O)(=O)c2ccccc2)C(=O)O)cc1` [Example 107, (2S)-2-benzenesulfonylamino-3-(4-(4-(N-methylamidino)phenoxy)butanoylamino)propanoic Acid] displayed a concentration for half-maximal inhibition (IC50) in the experiment on platelet aggregation [1] (setting [9]) of 29 nM.
As to `CCNC(=N)c1ccc(OCCCC(=O)NC[C@H](NS(=O)(=O)c2ccccc2)C(=O)O)cc1` [Example 108, (2S)-2-benzenesulfonylamino-3-(4-(4-(N-ethylamidino)phenoxy)butanoylamino)propanoic Acid], in the experiment on platelet aggregation [1] (setting [9]), the midpoint of inhibition, the IC50, lay at 51 nM.
In turn, `N=C1NCCc2cc(OCCCC(=O)NC[C@H](NS(=O)(=O)c3ccccc3)C(=O)O)ccc21` [Example 111, (2S)-2-benzenesulfonylamino-3-(4-(6-(1-imino-1,2,3,4-tetrahydroisoquinolyl)oxy)butanoylamino)propanoic Acid] registered a 50% inhibitory concentration (IC50) with platelet aggregation [1] (setting [9]) of 41 nM.
For the compound `CC(C)(C)C(=O)OCOC(=O)[C@H](CNC(=O)CCCOc1ccc(C(=N)N)cc1)NS(=O)(=O)c1ccccc1` [Example 113, (2S)-3-(4-(4-amidinophenoxy)butanoylamino)-2-benzenesulfonylaminopropanoicAcid Pivaloyloxymethyl Ester], the IC50 in the experiment with platelet aggregation [1] (setting [9]) is 48 nM.
In the experiment with platelet aggregation [1] (setting [9]), `NC(=O)c1ccc(C(=O)NCCC(=O)NC[C@H](NS(=O)(=O)c2ccccc2N)C(=O)O)cc1` [Example 114, (2S)-2-(2-amino)benzenesulfonylamino-3-(3-(4-carbamoylbenzoylamino)propanoylamino)propanoic Acid] gave an IC50 of 35 nM.
Same read-out and setting: the value for `CCc1ccc(S(=O)(=O)N[C@@H](CNC(=O)CCNC(=O)c2ccc(C(=N)N)cc2)C(=O)OCOC(=O)C(C)(C)C)cc1` [Example 116, (2S)-3-(3-(4-amidinobenzoylamino)propanoylamino)-2-(4-ethyl)benzenesulfonylaminopropanoic Acid Pivaloyloxymethyl Ester] was 103 nM.
